Laboratory results published in ChEMBL document CHEMBL5537115, “New broad-spectrum and potent antibacterial agents with dual-targeting mechanism: Promoting FtsZ polymerization and disrupting bacterial membranes” (Eur J Med Chem, 2024).
Active and inactive are the calls of the source. No cut-off for these calls is given here.

Columns and labels:
[1] = Hemolytic activity in mouse erythrocytes at 16 ug/ml incubated for 1 hr by absorbance based assay; assay type: toxicity, cell-based, Erythrocyte; settings: at 16 µg/mL, read-out: Activity
[2] = target: T1, Cell division protein FtsZ (Bacillus subtilis) (UniProt A5Z1V5); assay: Induction of FtsZ polymerization in Bacillus subtilis assessed as bundling of FtsZ protofilaments at 10 ug/ml preincubated for 15 mins followed by GTP addition measured after 10 mins by TEM analysis; settings: dose 10.0 µg/ml, time 25.0 min
T1 sequence (whole entry): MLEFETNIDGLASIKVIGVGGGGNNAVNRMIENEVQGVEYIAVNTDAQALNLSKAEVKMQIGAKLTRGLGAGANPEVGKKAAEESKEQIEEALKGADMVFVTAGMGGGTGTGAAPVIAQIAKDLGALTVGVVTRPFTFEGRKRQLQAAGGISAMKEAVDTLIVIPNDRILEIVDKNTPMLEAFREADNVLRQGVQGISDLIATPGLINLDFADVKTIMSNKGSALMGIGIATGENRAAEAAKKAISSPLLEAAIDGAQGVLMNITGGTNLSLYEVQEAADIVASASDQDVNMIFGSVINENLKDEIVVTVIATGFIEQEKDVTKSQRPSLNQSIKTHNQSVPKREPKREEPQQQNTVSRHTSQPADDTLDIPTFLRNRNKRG

Staphylococcus aureus [3] = assay: Induction of morphological change in Staphylococcus aureus ATCC25923 assessed as loss of bacterial membrane integrity at 16 times MIC incubated for 2 hrs by TEM analysis; assay type: functional, organism-based
Staphylococcus aureus [4] = assay: Bactericidal activity against Staphylococcus aureus ATCC25923 assessed as log reduction in bacterial growth at 0.25 to 0.5 ug/ml measured for 9 to 12 hrs by time-kill assay; assay type: functional; settings: dose 0.25-0.5 µg/ml; time 9-12 hrs
Acinetobacter baumannii [5] = assay: Antibacterial activity against Acinetobacter baumannii ATCC19606 assessed as bacterial growth inhibition incubated for 20 hrs by CLSI based broth microdilution method; assay type: functional
Escherichia coli [6] = assay: Induction of membrane potential depolarization in Escherichia coli ATCC25922 measured after 20 mins by diSC35 dye based spectroscopy; assay type: functional, organism-based
Escherichia coli [7] = assay: Antibacterial activity against penicillin-susceptible Escherichia coli ATCC25922 assessed as bacterial growth inhibition incubated for 20 hrs by CLSI based broth microdilution method; assay type: functional
Staphylococcus aureus [8] = assay: Antibacterial activity against methicillin-resistant Staphylococcus aureus ATCC43300 assessed as bacterial growth inhibition incubated for 20 hrs by CLSI based broth microdilution method; assay type: functional
Staphylococcus aureus [9] = assay: Selectivity ratio of MBC for erythromycin-susceptible Staphylococcus aureus ATCC25923 to MIC for erythromycin-susceptible Staphylococcus aureus ATCC25923; assay type: functional
Bacillus subtilis [10] = assay: Induction of morphological change in Bacillus subtilis ATCC9372 assessed as increase in cell length at 0.5 times MIC by phase contrast microscopy; assay type: functional, organism-based
Staphylococcus aureus [11] = assay: Antibacterial activity against erythromycin-susceptible Staphylococcus aureus ATCC25923 incubated for 18 to 24 hrs; assay type: functional; settings: time 18-24 hrs
Staphylococcus aureus [12] = assay: Antibacterial activity against Staphylococcus aureus ATCC25923 infected in Kunming mouse model assessed as bacterial growth reduction at 5 to 25 mg/kg, ip; assay type: functional, organism-based; settings: dose 5-25 mg/kg
Staphylococcus aureus [13] = assay: Inhibition of biofilm formation of Staphylococcus aureus ATCC25923 incubated for 20 hrs by crystal violet staining based analysis; assay type: functional, organism-based
Staphylococcus aureus [14] = assay: Induction of resistance development in Staphylococcus aureus ATCC25923 assessed as fold increase in MIC at 0.5 times MIC measured after 32 days by multi-passage resistance assay relative to control; assay type: functional; settings: time 32.0 day
Bacillus subtilis [15] = assay: Selectivity ratio of MBC for penicillin-susceptible Bacillus subtilis ATCC9372 to MIC for penicillin-susceptible Bacillus subtilis ATCC9372; assay type: functional
Staphylococcus aureus [16] = assay: Induction of morphological change in Staphylococcus aureus ATCC25923 assessed as leakage of cell contents at 16 times MIC incubated for 2 hrs by TEM analysis; assay type: functional, organism-based
Staphylococcus aureus [17] = assay: Antibacterial activity against erythromycin-susceptible Staphylococcus aureus ATCC25923 assessed as bacterial growth inhibition incubated for 20 hrs by CLSI based broth microdilution method; assay type: functional
Escherichia coli [18] = assay: Disruption of inner membrane in Escherichia coli ATCC25922 by PI staining based analysis; assay type: functional, organism-based; settings: time 12.0 min, TDE = time-dependent effect
Staphylococcus aureus [19] = assay: Induction of membrane potential depolarization in Staphylococcus aureus ATCC25923 measured after 20 mins by diSC35 dye based spectroscopy; assay type: functional, organism-based
Acinetobacter baumannii [20] = assay: Antibacterial activity against Acinetobacter baumannii ATCC19606 incubated for 18 to 24 hrs; assay type: functional; settings: time 18-24 hrs
Staphylococcus aureus [21] = assay: Antibacterial activity against penicillin-resistant Staphylococcus aureus ATCC31007 assessed as bacterial growth inhibition incubated for 20 hrs by CLSI based broth microdilution method; assay type: functional
Bacillus subtilis [22] = assay: Antibacterial activity against penicillin-susceptible Bacillus subtilis ATCC9372 incubated for 18 to 24 hrs; assay type: functional; settings: time 18-24 hrs
[23] = target: T1, Cell division protein FtsZ (Bacillus subtilis); assay: Induction of FtsZ polymerization in Bacillus subtilis preincubated for 10 mins followed by GTP addition measured upto 30 mins by absorbance based assay; settings: dose 2.5-10 µg/ml, time 40.0 min
Enterococcus faecium [24] = assay: Antibacterial activity against vancomycin-resistant Enterococcus faecium ATCC51559 assessed as bacterial growth inhibition incubated for 20 hrs by CLSI based broth microdilution method; assay type: functional
Staphylococcus aureus [25] = assay: Effect on proton gradient of cytoplasmic membrane in Staphylococcus aureus ATCC25923 at 1 ug/ml measured after 20 mins by diSC35 dye based analysis; assay type: functional, organism-based; settings: Cytoplasm membrane, dose 1.0 µg/ml
Escherichia coli [26] = assay: Disruption of outer membrane in Escherichia coli ATCC25922 at 16 ug/ml measured after 10 mins by NPN dye based analysis; assay type: functional, organism-based; settings: dose 16.0 µg/ml
Acinetobacter baumannii [27] = assay: Selectivity ratio of MBC for Acinetobacter baumannii ATCC19606 to MIC for Acinetobacter baumannii ATCC19606; assay type: functional
Streptococcus pyogenes = assay: Antibacterial activity against erythromycin-susceptible Streptococcus pyogenes 1 assessed as bacterial growth inhibition incubated for 20 hrs by CLSI based broth microdilution method; assay type: functional
Staphylococcus aureus [28] = assay: Inhibition of bacterial proliferation of Staphylococcus aureus ATCC25923 at 0.125 ug/ml measured for 24 hrs by time-kill assay; assay type: functional, organism-based; settings: dose 0.125 µg/ml
Enterococcus faecalis = assay: Antibacterial activity against vancomycin-susceptible Enterococcus faecalis ATCC29212 assessed as bacterial growth inhibition incubated for 20 hrs by CLSI based broth microdilution method; assay type: functional
Bacillus pumilus = assay: Antibacterial activity against penicillin-susceptible Bacillus pumilus CMCC63202 assessed as bacterial growth inhibition incubated for 20 hrs by CLSI based broth microdilution method; assay type: functional
[29] = target: T1, Cell division protein FtsZ (Bacillus subtilis); assay: Induction of FtsZ polymerization in Bacillus subtilis at 2.5 to 10 ug/ml preincubated with compound followed by GTP addition by absorbance based assay; settings: dose 2.5-10 µg/ml, time 40.0 min, TDE = time-dependent effect
Enterococcus faecium [30] = assay: Antibacterial activity against vancomycin-susceptible Enterococcus faecium ATCC19434 assessed as bacterial growth inhibition incubated for 20 hrs by CLSI based broth microdilution method; assay type: functional
Staphylococcus aureus [31] = assay: Disruption of inner membrane in Staphylococcus aureus ATCC25923 measured after 12 mins by PI staining based analysis; assay type: functional, organism-based

## C[n+]1cc(-c2ccccc2)c(/C=C/c2ccc(C(C)(C)C)cc2)cc1-c1ccc(C(C)(C)C)cc1.[I-]
[1]
  hemolysis at 1 h, 16 ug/ml: 6.37%
[2]
  Activity: Active
Staphylococcus aureus [3]
  Activity: Active
Staphylococcus aureus [4]
  Activity: 0 log10CFU/ml
Acinetobacter baumannii [5]
  MIC: 0.5 µg/mL
Escherichia coli [6]
  Activity: Dose-Dependent Effect
Escherichia coli [7]
  MIC: 4 µg/mL
Staphylococcus aureus [8]
  MIC: 0.125 µg/mL
Staphylococcus aureus [9]
  Ratio: 4
Bacillus subtilis [10]
  Activity: Active
Staphylococcus aureus [11]
  MBC: 0.25 µg/mL
Staphylococcus aureus [12]
  Activity: Active
Staphylococcus aureus [13]
  inhibition: Dose-Dependent Effect
Staphylococcus aureus [14]
  fold change (FC): 2
Bacillus subtilis [15]
  Ratio: 2
Staphylococcus aureus [16]
  Activity: Active
Staphylococcus aureus [17]
  MIC: 0.062 µg/mL
Escherichia coli [18]
  Activity: Tde
Staphylococcus aureus [19]
  Activity: Dose-Dependent Effect
Acinetobacter baumannii [20]
  MBC: 1 µg/mL
Staphylococcus aureus [21]
  MIC: 1 µg/mL
Bacillus subtilis [22]
  MBC: 0.25 µg/mL
[23]
  Activity: Dose-Dependent Effect
Enterococcus faecium [24]
  MIC: 0.5 µg/mL
Staphylococcus aureus [25]
  Activity: Active
Escherichia coli [26]
  Activity: Active
Acinetobacter baumannii [27]
  Ratio: 2
Streptococcus pyogenes
  MIC: 2 µg/mL
Staphylococcus aureus [28]
  inhibition: inactive
Enterococcus faecalis
  MIC: 0.25 µg/mL
Bacillus pumilus
  MIC: 0.062 µg/mL
[29]
  Activity: Tde
Enterococcus faecium [30]
  MIC: 0.125 µg/mL
Staphylococcus aureus [31]
  Activity: Dose-Dependent Effect
